Test results taken from ChEMBL document CHEMBL1148644, “Human PEPT1 pharmacophore distinguishes between dipeptide transport and binding” (J Med Chem, 2006).
Where a SMILES comes first, the peptide text is derived from it. [ ]: non-standard residue; d: D form. Tic = O=C(O)[C@@H]1Cc2ccccc2CN1; Sar = CNCC(=O)O

Columns and labels:
[1] = target: T1, Solute carrier family 15 member 1 (Homo sapiens, UniProt P46059); assay: Binding affinity to human PEPT1 assessed as inhibition of [14C]Gly-Sar uptake in MDCK cells; type: functional, cell-based
T1 sequence (P46059 whole entry): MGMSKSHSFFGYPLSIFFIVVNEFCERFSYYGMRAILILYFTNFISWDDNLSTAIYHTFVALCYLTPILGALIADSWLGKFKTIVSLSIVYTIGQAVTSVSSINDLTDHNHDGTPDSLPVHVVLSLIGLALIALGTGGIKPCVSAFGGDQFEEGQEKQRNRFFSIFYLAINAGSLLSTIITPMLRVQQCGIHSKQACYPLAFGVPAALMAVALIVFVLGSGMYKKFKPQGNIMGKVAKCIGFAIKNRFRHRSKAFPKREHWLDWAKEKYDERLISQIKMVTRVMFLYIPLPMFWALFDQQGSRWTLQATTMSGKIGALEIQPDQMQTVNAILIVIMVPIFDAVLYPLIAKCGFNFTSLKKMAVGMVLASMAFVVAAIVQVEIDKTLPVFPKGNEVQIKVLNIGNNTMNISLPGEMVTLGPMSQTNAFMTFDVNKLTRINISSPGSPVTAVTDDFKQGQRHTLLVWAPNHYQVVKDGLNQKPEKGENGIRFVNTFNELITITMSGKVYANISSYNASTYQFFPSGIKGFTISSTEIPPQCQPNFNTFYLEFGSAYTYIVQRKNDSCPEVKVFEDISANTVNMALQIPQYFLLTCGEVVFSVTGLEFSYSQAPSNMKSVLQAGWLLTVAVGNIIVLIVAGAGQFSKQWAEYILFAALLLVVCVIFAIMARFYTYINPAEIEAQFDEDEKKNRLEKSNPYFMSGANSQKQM

[2] = target: T1, Solute carrier family 15 member 1; assay: Activation of human PEPT1 expressed in MDCK cells; type: functional, cell-based

IC50 ([1]; mdck)	EC50 [2]	IC50 ([1]; read-out: IC50)	SMILES
Not Active			NCCC[C@H](NC(=O)[C@@H](N)CCCN)C(=O)O
	190 µM	390 µM	NCCCC[C@H](N)C(=O)N1CCC[C@@H]1C(=O)O
	190 µM	950 µM	N[C@@H](Cc1c[nH]cn1)C(=O)N[C@@H](Cc1c[nH]c2ccccc12)C(=O)O
	850 µM	2990 µM	C[C@H](NC(=O)[C@@H](N)Cc1ccccc1)C(N)=O
	100 µM	110 µM	C[C@H](NC(=O)[C@@H](N)Cc1ccc(O)cc1)C(=O)O
Not Active			NC(=O)CNC(=O)[C@@H](N)Cc1ccc(O)cc1
		10900 µM	NCCCC[C@H](NC(=O)[C@@H](N)CCCCN)C(=O)O
	580 µM	1070 µM	NCC(=O)NCC(=O)NCC(=O)O
	170 µM	70 µM	CC(C)C[C@H](NC(=O)CN)C(=O)O
	80 µM	70 µM	C[C@H](N)C(=O)N[C@@H](Cc1ccccc1)C(=O)O
	240 µM	330 µM	N[C@@H](Cc1ccc(O)cc1)C(=O)NCC(=O)O
Not Active			CC(=O)N[C@@H](Cc1ccccc1)C(=O)N[C@@H](Cc1ccc(O)cc1)C(N)=O (Ac-Phe-Tyr-NH2)
	80 µM	250 µM	C[C@H](N)C(=O)N[C@@H](C)C(=O)O (H-Ala-Ala-OH)
	230 µM	450 µM	C[C@H](N)C(=O)N[C@@H](CC(=O)O)C(=O)O (H-Ala-Asp-OH)
	220 µM	280 µM	C[C@H](N)C(=O)N[C@@H](CCCCN)C(=O)O (H-Ala-Lys-OH)
	80 µM	260 µM	C[C@H](N)C(=O)N[C@@H](Cc1c[nH]c2ccccc12)C(=O)O (H-Ala-Trp-OH)
	60 µM	170 µM	C[C@H](N)C(=O)N[C@@H](Cc1ccc(O)cc1)C(=O)O (H-Ala-Tyr-OH)
		7310 µM	NC(N)=NCCC[C@H](NC(=O)[C@@H](N)CCCN=C(N)N)C(=O)O (H-Arg-Arg-OH)
	270 µM	390 µM	NC(N)=NCCC[C@H](N)C(=O)NCC(=O)O (H-Arg-Gly-OH)
		8110 µM	NCCCC[C@H](NC(=O)[C@@H](N)CCCN=C(N)N)C(=O)O (H-Arg-Lys-OH)
	990 µM	630 µM	N[C@@H](CC(=O)O)C(=O)N[C@@H](CC(=O)O)C(=O)O (H-Asp-Asp-OH)
	440 µM	810 µM	N[C@@H](CC(=O)O)C(=O)NCC(=O)O (H-Asp-Gly-OH)
	470 µM	1310 µM	N[C@@H](CC(=O)O)C(=O)N[C@@H](Cc1c[nH]c2ccccc12)C(=O)O (H-Asp-Trp-OH)
	690 µM	310 µM	CC(C)[C@H](NC(=O)[C@@H](N)CC(=O)O)C(=O)O (H-Asp-Val-OH)

IC50 ([1]; mdck)	EC50 [2]	IC50 ([1]; read-out: IC50)	SMILES
Not Active			NCC(=O)NCC(=O)NCC(=O)NCC(=O)O (H-GGGG-OH)
	100 µM	150 µM	NC(=O)CC[C@H](NC(=O)[C@@H](N)CCC(N)=O)C(=O)O (H-Gln-Gln-OH)
	420 µM	510 µM	NC(=O)CC[C@H](N)C(=O)N[C@@H](CCC(=O)O)C(=O)O (H-Gln-Glu-OH)
	1000 µM	620 µM	N[C@@H](CCC(=O)O)C(=O)N[C@@H](CCC(=O)O)C(=O)O (H-Glu-Glu-OH)
	510 µM	390 µM	N[C@@H](CCC(=O)O)C(=O)NCC(=O)O (H-Glu-Gly-OH)
	310 µM	720 µM	NCCCC[C@H](NC(=O)[C@@H](N)CCC(=O)O)C(=O)O (H-Glu-Lys-OH)
	550 µM	380 µM	NCC(=O)N[C@@H](CC(=O)O)C(=O)O (H-Gly-Asp-OH)
	1100 µM	650 µM	NCC(=O)N[C@@H](CCC(=O)O)C(=O)O (H-Gly-Glu-OH)
Not Active			NCC(=O)NCC(=O)NCC(N)=O (H-Gly-Gly-Gly-NH2)
	480 µM	820 µM	NCC(=O)NCC(=O)O (H-Gly-Gly-OH)
	400 µM	810 µM	NCC(=O)N[C@@H](Cc1c[nH]cn1)C(=O)O (H-Gly-His-OH)
	210 µM	240 µM	CC(C)C[C@H](NC(=O)CN)C(=O)NCC(=O)O (H-Gly-Leu-Gly-OH)
	280 µM	980 µM	CC(C)C[C@H](NC(=O)CN)C(=O)N[C@@H](Cc1ccccc1)C(=O)O (H-Gly-Leu-Phe-OH)
	750 µM	1250 µM	NCCCC[C@H](NC(=O)CN)C(=O)O (H-Gly-Lys-OH)
Not Active			NCC(=O)N[C@@H](Cc1ccccc1)C(N)=O (H-Gly-Phe-NH2)
	130 µM	170 µM	NCC(=O)N[C@@H](Cc1ccccc1)C(=O)O (H-Gly-Phe-OH)
	330 µM	520 µM	NCC(=O)N[C@@H](Cc1c[nH]c2ccccc12)C(=O)O (H-Gly-Trp-OH)
Not Active			NCC(=O)N[C@@H](Cc1ccc(O)cc1)C(N)=O (H-Gly-Tyr-NH2)
	140 µM	120 µM	NCC(=O)N[C@@H](Cc1ccc(O)cc1)C(=O)O (H-Gly-Tyr-OH)
	280 µM	340 µM	N[C@@H](Cc1c[nH]cn1)C(=O)NCC(=O)O (H-His-Gly-OH)
		7200 µM	NCCCC[C@H](N)C(=O)N[C@@H](CCCN=C(N)N)C(=O)O (H-Lys-Arg-OH)
	530 µM	820 µM	NCCCC[C@H](N)C(=O)N[C@@H](CCC(=O)O)C(=O)O (H-Lys-Glu-OH)
	320 µM	380 µM	NCCCC[C@H](N)C(=O)NCC(=O)O (H-Lys-Gly-OH)
		660 µM	NCCCC[C@H](N)C(=O)N[C@@H](Cc1c[nH]c2ccccc12)C(=O)O (H-Lys-Trp-OH)

IC50 ([1]; mdck)	EC50 [2]	IC50 ([1]; read-out: IC50)	SMILES
	140 µM	250 µM	CC(C)[C@H](NC(=O)[C@@H](N)CCCCN)C(=O)O (H-Lys-Val-OH)
	110 µM	170 µM	N[C@@H](Cc1ccccc1)C(=O)NCC(=O)O (H-Phe-Gly-OH)
	30 µM	20 µM	NC(=O)[C@H](Cc1ccc(O)cc1)NC(=O)[C@@H](N)Cc1ccccc1 (H-Phe-Tyr-NH2)
	> 5000 µM	9160 µM	O=C(O)C[C@H](NC(=O)[C@@H]1CCCN1)C(=O)O (H-Pro-Asp-OH)
	> 5000 µM	12300 µM	O=C(O)CC[C@H](NC(=O)[C@@H]1CCCN1)C(=O)O (H-Pro-Glu-OH)
		> 16000 µM	O=C(O)CNC(=O)[C@@H]1CCCN1 (H-Pro-Gly-OH)
	250 µM	620 µM	CC(C)C[C@H](NC(=O)[C@@H]1CCCN1)C(=O)O (H-Pro-Leu-OH)
		> 16000 µM	NCCCC[C@H](NC(=O)[C@@H]1CCCN1)C(=O)O (H-Pro-Lys-OH)
	700 µM	800 µM	O=C(O)[C@@H]1CCCN1C(=O)[C@@H]1CCCN1 (H-Pro-Pro-OH)
	1600 µM	> 16000 µM	O=C(O)[C@H](CO)NC(=O)[C@@H]1CCCN1 (H-Pro-Ser-OH)
	140 µM	130 µM	N[C@@H](CO)C(=O)N[C@@H](CO)C(=O)O (H-Ser-Ser-OH)
	100 µM	260 µM	C[C@H](NC(=O)[C@@H](N)Cc1c[nH]c2ccccc12)C(=O)O (H-Trp-Ala-OH)
	260 µM	730 µM	N[C@@H](Cc1c[nH]c2ccccc12)C(=O)NCC(=O)O (H-Trp-Gly-OH)
		250 µM	N[C@@H](Cc1c[nH]c2ccccc12)C(=O)N[C@@H](Cc1c[nH]c2ccccc12)C(=O)O (H-Trp-Trp-OH)
		80 µM	N[C@@H](Cc1c[nH]c2ccccc12)C(=O)N[C@@H](Cc1ccc(O)cc1)C(=O)O (H-Trp-Tyr-OH)
	50 µM	90 µM	CC(C)[C@H](NC(=O)[C@@H](N)Cc1c[nH]c2ccccc12)C(=O)O (H-Trp-Val-OH)
		100 µM	N[C@@H](Cc1ccc(O)cc1)C(=O)N[C@@H](Cc1c[nH]c2ccccc12)C(=O)O (H-Tyr-Trp-OH)
		9110 µM	NC(=O)[C@H](Cc1ccc(O)cc1)NC(=O)[C@@H](N)Cc1ccc(O)cc1 (H-Tyr-Tyr-NH2)
	60 µM	60 µM	N[C@@H](Cc1ccc(O)cc1)C(=O)N[C@@H](Cc1ccc(O)cc1)C(=O)O (H-Tyr-Tyr-OH)
	210 µM	230 µM	CC(C)[C@H](N)C(=O)N[C@H](C(=O)N[C@H](C(=O)O)C(C)C)C(C)C (H-Val-Val-Val-OH)
	130 µM	330 µM	NCC(=O)N1CCC[C@H]1C(=O)O [GLYCYL PROLINE] (H-Gly-Pro-OH)
	540 µM	1160 µM	CN(CC(=O)O)C(=O)CN [GLYCYLSARCOSINE] (H-Gly-[Sar]-OH)
	80 µM	170 µM	CC(C)C[C@H](NC(=O)[C@@H](N)CC(C)C)C(=O)O [LEU-LEU]
	70 µM	210 µM	CC(C)[C@H](N)C(=O)N[C@H](C(=O)O)C(C)C [VAL-VAL] (H-Val-Val-OH)

SMILES	IC50 ([1]; mdck)	EC50 [2]	IC50 ([1]; read-out: IC50)
N[C@@H](Cc1c[nH]cn1)C(=O)N[C@@H](Cc1c[nH]cn1)C(=O)O		370 µM	400 µM
NC(=O)[C@@H]1Cc2ccccc2CN1C(=O)[C@@H](N)Cc1ccc(O)cc1 (H-Tyr-[Tic]-NH2)	Not Active		
